Laboratory results reported in patent EP4417607A1, “HETEROCYCLIC COMPOUND AS SOS1 INHIBITOR AND USES THEREOF” (Nanjing Zaiming Pharmaceutical Co., Ltd., priority 2021, dated 2023).

Key:
H358 cells = assay: H358 cell proliferation inhibition (CellTiter-Glo luminescent cell viability assay); format: cell-based; conditions: Homo sapiens, NCI-H358, 168 h, 7 days
Procedure, shortened: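 H358 cells seeded at 3000 cells/well in RPMI1640/10% FBS, treated with compound for 7 days at 37 °C/5% CO2. Viability read by CellTiter-Glo 3D luminescence, normalised to cell-free (100%) and compound-free (0%) controls; IC50 fitted from 8 concentrations by four-parameter curve.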

[1] = system: p-ERK pathway in H358 cells; assay: p-ERK pathway inhibition in H358 cells (Advanced phospho-ERK (Thr202/Tyr204) cellular kit, HTRF); format: cell-based; conditions: Homo sapiens, NCI-H358, 1 h compound incubation
Procedure, shortened: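 IC50 from an 8-point four-parameter fit of % inhibition of ERK Thr202/Tyr204 phosphorylation, measured by HTRF 665/620 ratio in lysates. H358 cells were seeded at 50000/well, starved overnight without serum, and exposed to compound 1 h at 37 °C; controls were cell-free (100%) and untreated (0%).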

IC50 (H358 cells) [nM] | IC50 [1] [nM] | SMILES
47.2 | 114 | [2H]C([2H])([2H])Oc1c(=O)n(N2CCOCC2)cc2c(N[C@H](C)c3cccc(C(F)F)c3F)nc(C)nc12 [Example 48, (R)-4-((1-(3-(difluoromethyl)-2-fluorophenyl)ethyl)amino)-8-(methoxy-d3)-2-methyl-6-morpholinepyrido[4,3-d]pyrimidine-7(6H)-one]
108 | 113 | Cc1nc(N[C@H](C)c2cccc(C#N)c2C)c2cn(N3CCOCC3)c(=O)c(N3CCN(C)CC3)c2n1 [Example 76, (R)-2-methyl-3-(1-((2-methyl-8-(4-methylpiperazin-1-yl)-6-morpholine-7-oxo-6,7-dihydropyrido[4,3-d]pyrimidin-4-yl)amino)ethyl)benzonitrile]
21.2 | 109 | [2H][C@](C)(Nc1nc(C)nc2c(N3CCOC[C@@H]3C)c(=O)n(C3(CF)CC3)cc12)c1cccc(C(F)F)c1F [Example 112, 4-(((R)-1-(3-(difluoromethyl)-2-fluorophenyl)ethyl-1-d)amino)-6-(1-(fluoromethyl)cyclopropyl)-2-methyl-8-((S)-3-methylmorpholine)pyrido[4,3-d]pyrimidine-7(6H)-one]
102 | 111 | Cc1nc(N[C@H](C)c2cccc(C(F)F)c2F)c2cn(C3(CF)CC3)c(=O)c(OCc3ccccn3)c2n1 [Example 122, (R)-4-((1-(3-(difluoromethyl)-2-fluorophenyl)ethyl)amino)-6-(1-(fluoromethyl)cyclopropyl)-2-methyl-8-(pyridin-2-ylmethoxy)pyrido[4,3-d]pyrimidine-7(6H)-one]
72.1 | 54.6 | Cc1nc(N[C@H](C)c2cccc(C(F)F)c2F)c2cn(C3(CF)CC3)c(=O)c(OC(F)F)c2n1 [Example 119, (R)-8-(difluoromethoxy)-4-((1-(3-(difluoromethyl)-2-fluorophenyl)ethyl)amino)-6-(1-(fluoromethyl)cyclopropyl)-2-methylpyrido[4,3-d]pyrimidine-7(6H)-one]
23.7 | 37.5 | Cc1nc(N[C@H](C)c2cccc(C#N)c2C)c2cn(C3(CF)CC3)c(=O)c(N3CCOCC3)c2n1 [Example 47]
50.8 | 88.2 | COc1c(=O)n(C2(CF)CC2)cc2c(N[C@H](C)c3cccc(C(C)(F)F)c3F)nc(C)nc12 [Example 11, (R)-4-((1-(3-(1,1-difluoroethyl)-2-fluorophenyl)ethyl)amino)-6-(1-(fluoromethyl)cyclopropyl)-8-methoxy-2-methylpyrido[4,3-d]pyrimidine-7(6H)-one]
66.4 | 27 | Cc1nc(N[C@H](C)c2cccc(C(F)F)c2F)c2cn(C3(CF)CC3)c(=O)c(N(C)c3cnn(C)c3)c2n1 [Example 65, (R)-4-((1-(3-(difluoromethyl)-2-fluorophenyl)ethyl)amino)-6-(1-(fluoromethyl)cyclopropyl)-2-methyl-8-(methyl(1-methyl-1H-pyrazol-4-yl)amino)pyrido[4,3-d]pyrimidine-7(6H)-one]
124 | 59.8 | COC1(C)CCN(c2c(=O)n(C3(CF)CC3)cc3c(N[C@H](C)c4cccc(C(F)F)c4F)nc(C)nc23)CC1 [Example 155]
41.9 | 62.3 | [2H][C@](C)(Nc1nc(C)nc2c(N3CCS(=O)(=O)CC3)c(=O)n(C3(CF)CC3)cc12)c1cccc(C(F)F)c1F [Example 124, (R)-4-((1-(3-(difluoromethyl)-2-fluorophenyl)ethyl-1-d)amino)-8-(1,1-dioxidothiomorpholinyl)-6-(1-(fluoromethyl)cyclopropyl)-2-methylpyrido[4,3-d]pyrimidine-7(6H)-one]
50.8 | 49.2 | Cc1nc(N[C@H](C)c2cccc(C(F)F)c2F)c2cn(C3(CF)CC3)c(=O)c(N3CCO[C@@H](C)C3)c2n1 [Example 43, 4-(((R)-1-(3-(difluoromethyl)-2-fluorophenyl)ethyl)amino)-6-(1-(fluoromethyl)cyclopropyl)-2-methyl-8-((S)-2-methylmorpholine)pyrido[4,3-d]pyrimidine-7(6H)-one]
73.1 | 41.7 | Cc1nc(N[C@H](C)c2cccc(C(F)F)c2F)c2cn(C3(CF)CC3)c(=O)c(N3CCC4(CC3)COC4)c2n1 [Example 151, (R)-4-((1-(3-(difluoromethyl)-2-fluorophenyl)ethyl)amino)-6-(1-(fluoromethyl)cyclopropyl)-2-methyl-8-(2-oxa-7-azaspiro[3.5]nonan-7-yl)pyrido[4,3-d]pyrimidine-7(6H)-one]
24.6 | 54.8 | Cc1nc(N[C@H](C)c2cccc(C(C)(F)F)c2F)c2cn(C3(CF)CC3)c(=O)c(N3CCOC[C@@H]3C)c2n1 [Example 114, 4-(((R)-1-(3-(1,1-difluoroethyl)-2-fluorophenyl)ethyl)amino)-6-(1-(fluoromethyl)cyclopropyl)-2-methyl-8-((S)-3-methylmorpholine)pyrido[4,3-d]pyrimidine-7(6H)-one]
11.7 | 100 | Cc1nc(N[C@H](C)c2cccc(C(F)F)c2F)c2cn(C3(CF)CC3)c(=O)c(N3CCN(C)CC3)c2n1 [Example 38, (R)-4-((1-(3-(difluoromethyl)-2-fluorophenyl)ethyl)amino)-6-(1-(fluoromethyl)cyclopropyl)-2-methyl-8-(4-methylpiperazin-1-yl)pyrido[4,3-d]pyrimidine-7(6H)-one]
97.2 | 41 | Cc1nc(N[C@H](C)c2cccc(C(F)(F)F)c2C)c2cn(C3(CF)CC3)c(=O)c(N3CCO[C@H](C)C3)c2n1 [Example 85, 6-(1-(fluoromethyl)cyclopropyl)-2-methyl-4-(((R)-1-(2-methyl-3-(trifluoromethyl)phenyl)ethyl)amino)-8-((R)-2-methylmorpholine)pyrido[4,3-d]pyrimidine-7(6H)-one]
114 | 156 | Cc1nc(N[C@H](C)c2cccc(C#N)c2C)c2cn(C3(CF)CC3)c(=O)c(-c3ccc(C#N)cc3)c2n1 [Example 71, (R)-3-(1-((8-(4-cyanophenyl)-6-(1-(fluoromethyl)cyclopropyl)-2-methyl-7-oxo-6,7-dihydropyrido[4,3-d]pyrimidin-4-yl)amino)ethyl)-2-methylbenzonitrile]
80 | 112 | Cc1nc(N[C@H](C)c2cccc(C(F)(F)C(C)(C)C#N)c2)c2cn(C3(CF)CC3)c(=O)cc2n1 [Example 6, (R)-3,3-difluoro-3-(3-(1-((6-(1-(fluoromethyl)cyclopropyl)-2-methyl-7-oxo-6,7-dihydropyrido[4,3-d]pyrimidin-4-yl)amino)ethyl)phenyl)-2,2-dimethylpropanenitrile]
71.6 | 133 | Cc1nc(N[C@H](C)c2cccc(C(F)F)c2F)c2cn(C3(CF)CC3)c(=O)c(N3CCC(C)(O)C3)c2n1 (stereo partly drawn) [Example 62, 4-(((R)-1-(3-(difluoromethyl)-2-fluorophenyl)ethyl)amino)-6-(1-(fluoromethyl)cyclopropyl)-8-(3-hydroxy-3-methylpyrrolidin-1-yl)-2-methylpyrido[4,3-d]pyrimidine-7(6H)-one]
71.1 | 39.6 | [2H][C@](C)(Nc1nc(C)nc2c(N3CCOCC3)c(=O)n(N3CCOCC3)cc12)c1cccc(C(F)F)c1F [Example 78, (R)-4-((1-(3-(difluoromethyl)-2-fluorophenyl)ethyl-1-d)amino)-2-methyl-6,8-dimorpholinepyrido[4,3-d]pyrimidine-7(6H)-one]
